Experimental data published in patent US9926302B2, “Heteroaryl substituted heterocyclyl sulfones” (priority 2014, dated 2018).

target: T1, Human CaV2.2 channels (Homo sapiens, UniProt Q00975); assay: Fluorescence assay for CaV2.2 channels using potassium depolarization to induce channel opening (FLIPR, Fluo 4); assay type: cell-based; conditions: 3 μM test compound; alternative assay buffer 30 mM KCl (inactivated channel state); HEK293 cells stably expressing human CaV2.2
T1 construct: expressed in transfected cells
T1 sequence (P54289 947-1103): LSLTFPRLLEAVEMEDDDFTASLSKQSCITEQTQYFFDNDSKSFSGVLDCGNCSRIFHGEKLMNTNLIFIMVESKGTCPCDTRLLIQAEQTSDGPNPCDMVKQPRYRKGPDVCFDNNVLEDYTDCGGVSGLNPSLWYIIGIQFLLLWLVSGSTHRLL
T1 sequence (P54289 25-946): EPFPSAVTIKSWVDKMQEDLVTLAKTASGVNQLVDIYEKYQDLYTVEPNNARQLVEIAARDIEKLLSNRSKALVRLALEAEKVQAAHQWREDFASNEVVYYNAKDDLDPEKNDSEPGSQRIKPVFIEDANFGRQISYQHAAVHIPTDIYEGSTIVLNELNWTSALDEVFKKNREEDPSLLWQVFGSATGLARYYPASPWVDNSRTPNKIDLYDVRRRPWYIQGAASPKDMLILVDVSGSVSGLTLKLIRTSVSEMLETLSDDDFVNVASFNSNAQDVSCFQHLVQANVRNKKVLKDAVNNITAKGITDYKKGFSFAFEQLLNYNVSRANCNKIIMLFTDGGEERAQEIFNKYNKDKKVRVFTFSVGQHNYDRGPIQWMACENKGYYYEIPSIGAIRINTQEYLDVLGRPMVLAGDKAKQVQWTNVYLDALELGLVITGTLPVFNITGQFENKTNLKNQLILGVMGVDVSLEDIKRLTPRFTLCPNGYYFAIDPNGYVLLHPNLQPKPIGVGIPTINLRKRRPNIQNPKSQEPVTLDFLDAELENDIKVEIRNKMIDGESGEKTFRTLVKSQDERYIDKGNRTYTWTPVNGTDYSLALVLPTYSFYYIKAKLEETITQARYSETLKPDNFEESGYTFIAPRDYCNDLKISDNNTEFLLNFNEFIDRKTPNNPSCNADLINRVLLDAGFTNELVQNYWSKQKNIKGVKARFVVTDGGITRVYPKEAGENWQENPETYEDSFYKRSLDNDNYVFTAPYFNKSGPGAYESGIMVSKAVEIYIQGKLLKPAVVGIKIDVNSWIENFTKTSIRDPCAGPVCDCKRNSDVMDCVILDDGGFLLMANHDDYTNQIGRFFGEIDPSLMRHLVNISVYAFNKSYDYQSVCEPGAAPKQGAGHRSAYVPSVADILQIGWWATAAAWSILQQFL
T1 sequence (P54284 whole entry, further chain): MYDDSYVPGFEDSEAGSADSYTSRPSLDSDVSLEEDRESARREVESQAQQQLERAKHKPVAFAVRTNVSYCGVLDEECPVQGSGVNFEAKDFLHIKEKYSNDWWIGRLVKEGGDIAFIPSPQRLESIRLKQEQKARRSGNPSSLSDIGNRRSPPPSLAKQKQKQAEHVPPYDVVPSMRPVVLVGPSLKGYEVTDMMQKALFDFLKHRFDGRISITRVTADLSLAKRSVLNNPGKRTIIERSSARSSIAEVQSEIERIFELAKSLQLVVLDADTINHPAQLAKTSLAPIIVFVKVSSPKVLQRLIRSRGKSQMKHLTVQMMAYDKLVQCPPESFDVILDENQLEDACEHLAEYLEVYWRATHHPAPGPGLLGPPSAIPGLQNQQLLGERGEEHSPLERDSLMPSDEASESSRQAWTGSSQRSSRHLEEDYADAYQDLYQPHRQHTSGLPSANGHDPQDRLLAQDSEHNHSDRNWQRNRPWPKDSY
T1 sequence (Q00975 whole entry): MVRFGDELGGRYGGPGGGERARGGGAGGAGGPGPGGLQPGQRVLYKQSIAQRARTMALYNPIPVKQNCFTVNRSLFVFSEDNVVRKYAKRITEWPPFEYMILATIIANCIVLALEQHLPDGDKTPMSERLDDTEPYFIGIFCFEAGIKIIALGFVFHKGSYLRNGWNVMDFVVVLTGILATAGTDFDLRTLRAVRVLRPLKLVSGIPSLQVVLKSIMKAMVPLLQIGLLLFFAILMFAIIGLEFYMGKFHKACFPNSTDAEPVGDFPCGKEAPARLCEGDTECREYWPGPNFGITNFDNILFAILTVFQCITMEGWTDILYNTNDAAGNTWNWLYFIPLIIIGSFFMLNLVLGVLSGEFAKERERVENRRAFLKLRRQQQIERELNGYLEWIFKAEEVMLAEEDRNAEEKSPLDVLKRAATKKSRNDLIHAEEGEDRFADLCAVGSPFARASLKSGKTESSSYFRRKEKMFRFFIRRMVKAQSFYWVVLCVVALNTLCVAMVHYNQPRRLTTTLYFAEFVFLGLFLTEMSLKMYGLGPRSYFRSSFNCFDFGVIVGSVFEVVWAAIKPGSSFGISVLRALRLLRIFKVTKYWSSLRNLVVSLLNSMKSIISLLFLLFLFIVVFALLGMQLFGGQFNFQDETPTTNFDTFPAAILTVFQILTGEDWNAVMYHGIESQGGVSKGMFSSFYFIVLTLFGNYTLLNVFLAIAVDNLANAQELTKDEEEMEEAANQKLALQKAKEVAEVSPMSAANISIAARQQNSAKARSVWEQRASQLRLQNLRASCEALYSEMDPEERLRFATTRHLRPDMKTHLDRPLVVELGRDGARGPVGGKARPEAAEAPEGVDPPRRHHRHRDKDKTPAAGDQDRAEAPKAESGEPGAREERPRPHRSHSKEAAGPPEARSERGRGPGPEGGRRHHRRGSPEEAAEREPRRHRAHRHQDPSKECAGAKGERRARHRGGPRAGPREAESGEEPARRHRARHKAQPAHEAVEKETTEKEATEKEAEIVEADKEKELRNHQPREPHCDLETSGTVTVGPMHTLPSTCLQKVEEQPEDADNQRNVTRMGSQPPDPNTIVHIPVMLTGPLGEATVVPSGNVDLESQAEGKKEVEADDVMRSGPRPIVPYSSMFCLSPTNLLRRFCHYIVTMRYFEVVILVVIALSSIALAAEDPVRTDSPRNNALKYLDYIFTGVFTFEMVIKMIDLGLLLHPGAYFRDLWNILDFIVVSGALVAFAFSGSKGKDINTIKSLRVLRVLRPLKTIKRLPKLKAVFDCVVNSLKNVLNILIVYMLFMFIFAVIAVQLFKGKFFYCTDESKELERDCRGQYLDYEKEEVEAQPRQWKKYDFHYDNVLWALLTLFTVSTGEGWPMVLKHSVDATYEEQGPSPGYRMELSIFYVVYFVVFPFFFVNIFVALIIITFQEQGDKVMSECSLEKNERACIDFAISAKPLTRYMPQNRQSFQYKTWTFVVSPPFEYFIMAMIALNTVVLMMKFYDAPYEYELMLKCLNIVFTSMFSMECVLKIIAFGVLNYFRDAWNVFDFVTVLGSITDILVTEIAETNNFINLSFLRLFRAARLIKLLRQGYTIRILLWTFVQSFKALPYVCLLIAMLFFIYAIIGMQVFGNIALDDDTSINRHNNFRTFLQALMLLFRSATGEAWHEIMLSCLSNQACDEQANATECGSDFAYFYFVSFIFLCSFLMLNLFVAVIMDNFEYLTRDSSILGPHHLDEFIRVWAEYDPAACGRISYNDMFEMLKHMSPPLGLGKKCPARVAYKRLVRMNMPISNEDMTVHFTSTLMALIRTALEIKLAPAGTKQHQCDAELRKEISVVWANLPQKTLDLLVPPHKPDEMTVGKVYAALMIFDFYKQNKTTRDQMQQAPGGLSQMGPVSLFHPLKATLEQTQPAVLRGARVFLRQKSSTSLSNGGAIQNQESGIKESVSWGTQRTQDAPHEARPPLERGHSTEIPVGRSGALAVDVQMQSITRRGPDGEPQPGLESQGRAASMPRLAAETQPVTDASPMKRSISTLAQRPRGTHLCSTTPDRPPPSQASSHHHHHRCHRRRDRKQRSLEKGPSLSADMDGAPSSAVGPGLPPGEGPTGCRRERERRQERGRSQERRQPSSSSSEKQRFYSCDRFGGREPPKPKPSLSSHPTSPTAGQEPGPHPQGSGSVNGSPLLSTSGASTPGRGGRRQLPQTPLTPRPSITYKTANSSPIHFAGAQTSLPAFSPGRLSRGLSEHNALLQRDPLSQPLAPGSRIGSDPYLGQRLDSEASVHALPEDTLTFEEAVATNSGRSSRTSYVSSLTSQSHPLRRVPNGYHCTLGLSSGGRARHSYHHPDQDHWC
Method in brief: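 HEK293 cells stably co-expressing CaV2.2 with alpha2-delta and beta subunits plus Kir2.3, loaded with 2 μM Fluo 4 and pre-incubated 15 min at 25° C with compound in 1 mM or 30 mM KCl buffer (pH 7.4; latter promotes inactivated state). Depolarized by KCl addition; peak fluorescence amplitude normalized to baseline gives inhibition.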

Compound | Activity Category: %-Inhib (CaV2.2) @3 μM @30 mM KCl
Cn1nc(S(C)(=O)=O)cc1C1CC(C)(S(=O)(=O)c2cccc(C(F)(F)F)c2)CCO1 (stereo not shown) [SC-429, 1-Methyl-3-methylsulfonyl-5-[4-methyl-4-[[3-(trifluoromethyl)phenyl]sulfonyl]-tetrahydro-pyran-2-yl]-1H-pyrazole] | C (%-Inhibition >40% up to ≤75%)
Cn1nc(S(C)(=O)=O)cc1C1CC(C)(S(=O)(=O)c2cccc(C(F)(F)F)c2)CCO1 (stereo not shown) [SC-430, 1-Methyl-3-methylsulfonyl-5-[4-methyl-4-[[3-(trifluoromethyl)phenyl]sulfonyl]-tetrahydro-pyran-2-yl]-1H-pyrazole] | B (%-Inhibition >75% up to ≤95%)
Cn1nc(C2CC2)cc1C1CC(C)(S(=O)(=O)c2cccc(C(F)(F)F)c2)CCO1 (stereo not shown) [SC-432, 3-Cyclopropyl-1-methyl-5-[4-methyl-4-[[3-(trifluoromethyl)phenyl]sulfonyl]-tetrahydro-pyran-2-yl]-1H-pyrazole] | A (%-Inhibition >95%)
CC1(S(=O)(=O)c2cccc(OC(F)F)c2)CCOC(c2ncc(S(C)(=O)=O)cc2Cl)C1 (stereo not shown) [SC-436, 3-Chloro-2-[4-[[3-(difluoro-methoxy)-phenyl]sulfonyl]-4-methyl-tetrahydro-pyran-2-yl]-5-methylsulfonyl-pyridine] | C (%-Inhibition >40% up to ≤75%)
CC1(S(=O)(=O)c2cccc(OC(F)F)c2)CCOC(c2ncc(S(C)(=O)=O)cc2Cl)C1 (stereo not shown) [SC-437, 3-Chloro-2-[4-[[3-(difluoro-methoxy)-phenyl]sulfonyl]-4-methyl-tetrahydro-pyran-2-yl]-5-methylsulfonyl-pyridine] | B (%-Inhibition >75% up to ≤95%)
CC1(S(=O)(=O)c2cccc(Cl)c2)CCOC(c2ncc(S(C)(=O)=O)cc2Cl)C1 (stereo not shown) [SC-439, 3-Chloro-2-[4-[(3-chlorophenyl)sulfonyl]-4-methyl-tetrahydro-pyran-2-yl]-5-methylsulfonyl-pyridine] | C (%-Inhibition >40% up to ≤75%)
CC1(S(=O)(=O)c2cccc(Cl)c2)CCOC(c2ncc(S(C)(=O)=O)cc2Cl)C1 (stereo not shown) [SC-440, 3-Chloro-2-[4-[(3-chlorophenyl)sulfonyl]-4-methyl-tetrahydro-pyran-2-yl]-5-methylsulfonyl-pyridine] | B (%-Inhibition >75% up to ≤95%)
Cc1cc(S(C)(=O)=O)cnc1C1CC(C)(S(=O)(=O)c2cc(F)cc(C(F)(F)F)c2)CCO1 (stereo not shown) [SC-444, 2-[4-[[3-Fluoro-5-(trifluoromethyl)-phenyl]sulfonyl]-4-methyl-tetrahydro-pyran-2-yl]-3-methyl-5-methylsulfonyl-pyridine] | B (%-Inhibition >75% up to ≤95%)
Cc1cc(S(C)(=O)=O)cnc1C1CC(C)(S(=O)(=O)c2cc(F)cc(C(F)(F)F)c2)CCO1 (stereo not shown) [SC-445, 2-[4-[[3-Fluoro-5-(trifluoromethyl)-phenyl]sulfonyl]-4-methyl-tetrahydro-pyran-2-yl]-3-methyl-5-methylsulfonyl-pyridine] | C (%-Inhibition >40% up to ≤75%)
CC(C)c1cccc(S(=O)(=O)C2(C)CCOC(c3ncc(S(C)(=O)=O)cc3Cl)C2)c1 (stereo not shown) [SC-447, 3-Chloro-2-[4-[(3-isopropyl-phenyl)sulfonyl]-4-methyl-tetrahydro-pyran-2-yl]-5-methylsulfonyl-pyridine] | A (%-Inhibition >95%)
Cc1cc(S(C)(=O)=O)cnc1C1CC(C)(S(=O)(=O)c2cccc(OC(F)(F)F)c2)CCO1 (stereo not shown) [SC-449, 3-Methyl-5-methylsulfonyl-2-[4-methyl-4-[[3-(trifluoromethyloxy)-phenyl]sulfonyl]-tetrahydro-pyran-2-yl]-pyridine] | B (%-Inhibition >75% up to ≤95%)
Cc1cc(S(C)(=O)=O)cnc1C1CC(C)(S(=O)(=O)c2cccc(OC(F)(F)F)c2)CCO1 (stereo not shown) [SC-450, 3-Methyl-5-methylsulfonyl-2-[4-methyl-4-[[3-(trifluoromethyloxy)-phenyl]sulfonyl]-tetrahydro-pyran-2-yl]-pyridine] | C (%-Inhibition >40% up to ≤75%)

same assay, conditions: HEK293, 3 μM test compound; alternative assay buffer 30 mM KCl (inactivated channel state); HEK293 cells stably expressing human CaV2.2; read-out: Activity Category: %-Inhib (CaV2.2) @3 μM @30 mM KCl

Compound | inhibition at 3 µM
CC1(S(=O)(=O)c2cccc(C(F)(F)F)c2)CCOC(c2ccc(OC(F)F)nc2)C1 (stereo not shown) [SC-418, 2-(Difluoro-methoxy)-5-[4-methyl-4-[[3-(trifluoromethyl)phenyl]sulfonyl]-tetrahydro-pyran-2-yl]-pyridine] | > 95%
CN(C)c1cnc(C2CC(C)(S(=O)(=O)c3cccc(C(F)(F)F)c3)CCO2)cn1 (stereo not shown) [SC-421, Dimethyl-[5-[4-methyl-4-[[3-(trifluoromethyl)phenyl]sulfonyl]-tetrahydro-pyran-2-yl]-pyrazin-2-yl]-amine] | 75 to 95%
CC1(S(=O)(=O)c2cccc(C(F)(F)F)c2)CCOC(c2ncc(C3CC3)cc2Cl)C1 (stereo not shown) [SC-425, 3-Chloro-5-cyclopropyl-2-[4-methyl-4-[[3-(trifluoromethyl)phenyl]sulfonyl]-tetrahydro-pyran-2-yl]-pyridine] | > 95%
CC1(S(=O)(=O)c2cccc(C(F)(F)F)c2)CCOC(c2ncc(OC(F)F)cc2Cl)C1 (stereo not shown) [SC-427, 3-Chloro-5-(difluoro-methoxy)-2-[4-methyl-4-[[3-(trifluoromethyl)phenyl]sulfonyl]-tetrahydro-pyran-2-yl]-pyridine] | > 95%
Cn1nc(C2CC2)cc1C1CC(C)(S(=O)(=O)c2cccc(C(F)(F)F)c2)CCO1 (stereo not shown) [SC-431, 3-Cyclopropyl-1-methyl-5-[4-methyl-4-[[3-(trifluoromethyl)phenyl]sulfonyl]-tetrahydro-pyran-2-yl]-1H-pyrazole] | 75 to 95%
Cc1cc(S(C)(=O)=O)cnc1C1CC(C)(S(=O)(=O)c2cc(F)cc(C(F)F)c2)CCO1 (stereo not shown) [SC-442, 2-[4-[[3-(Difluoro-methyl)-5-fluoro-phenyl]sulfonyl]-4-methyl-tetrahydro-pyran-2-yl]-3-methyl-5-methylsulfonyl-pyridine] | 40 to 75%
CC(C)c1cccc(S(=O)(=O)C2(C)CCOC(c3ncc(S(C)(=O)=O)cc3Cl)C2)c1 (stereo not shown) [SC-446, 3-Chloro-2-[4-[(3-isopropyl-phenyl)sulfonyl]-4-methyl-tetrahydro-pyran-2-yl]-5-methylsulfonyl-pyridine] | 75 to 95%
